Assay results taken from patent US10405547B2, “Substituted cyclic amides as herbicides” (FMC Corporation, priority 2015, dated 2019).

Experiments:
Type in all cases: in vivo
[1] = tested on: barnyardgrass (Echinochloa crus-galli); assay: Test A preemergence, barnyardgrass; settings: 0 to 100 scale (0 no effect, 100 complete control)
Procedure, shortened: (§1)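 Greenhouse pot test in loam/sand soil. Pre: directed soil spray after seeding. Post: 1–2-leaf plants, 2–10 cm. Formulation: non-phytotoxic solvent + surfactant. Visual rating vs untreated controls at ~10 d, 0 (no effect) to 100 (complete control).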

[2] = tested on: kochia (Kochia scoparia); assay: Test A preemergence, kochia; settings: 0 to 100 scale (0 no effect, 100 complete control)
Procedure, shortened: as §1

[3] = tested on: ragweed (common ragweed, Ambrosia elatior); assay: Test A preemergence, ragweed; settings: 0 to 100 scale (0 no effect, 100 complete control)
Procedure, shortened: as §1

[4] = tested on: ryegrass, Italian (Lolium multiflorum); assay: Test A preemergence, Italian ryegrass; settings: 0 to 100 scale (0 no effect, 100 complete control)
Procedure, shortened: as §1

[5] = tested on: foxtail, giant (Setaria faberii); assay: Test A preemergence, giant foxtail; settings: 0 to 100 scale (0 no effect, 100 complete control)
Procedure, shortened: as §1

[6] = tested on: pigweed (Amaranthus retroflexus); assay: Test A preemergence, pigweed; settings: 0 to 100 scale (0 no effect, 100 complete control)
Procedure, shortened: as §1

[7] = tested on: barnyardgrass (Echinochloa crus-galli); assay: Test A postemergence, barnyardgrass; settings: visual injury, 0 to 100 scale (0 no effect, 100 complete control), approximately 10 days
Procedure, shortened: as §1

[8] = tested on: kochia (Kochia scoparia); assay: Test A postemergence, kochia; settings: visual injury, 0 to 100 scale (0 no effect, 100 complete control), approximately 10 days
Procedure, shortened: as §1

[9] = tested on: ragweed (common ragweed, Ambrosia elatior); assay: Test A postemergence, ragweed; settings: visual injury, 0 to 100 scale (0 no effect, 100 complete control), approximately 10 days
Procedure, shortened: as §1

[10] = tested on: ryegrass, Italian (Lolium multiflorum); assay: Test A postemergence, Italian ryegrass; settings: visual injury, 0 to 100 scale (0 no effect, 100 complete control), approximately 10 days
Procedure, shortened: as §1

[11] = tested on: foxtail, giant (Setaria faberii); assay: Test A postemergence, giant foxtail; settings: visual injury, 0 to 100 scale (0 no effect, 100 complete control), approximately 10 days
Procedure, shortened: as §1

[12] = tested on: pigweed (Amaranthus retroflexus); assay: Test A postemergence, pigweed; settings: visual injury, 0 to 100 scale (0 no effect, 100 complete control), approximately 10 days
Procedure, shortened: as §1

[13] = tested on: blackgrass (Alopecurus myosuroides); assay: Test A postemergence, blackgrass; settings: visual injury, 0 to 100 scale (0 no effect, 100 complete control), approximately 10 days
Procedure, shortened: as §1

[14] = tested on: galium (catchweed bedstraw, Galium aparine); assay: Test A postemergence, galium; settings: visual injury, 0 to 100 scale (0 no effect, 100 complete control), approximately 10 days
Procedure, shortened: as §1

[15] = tested on: wheat (Triticum aestivum); assay: Test A postemergence, wheat; settings: visual injury, 0 to 100 scale (0 no effect, 100 complete control), approximately 10 days
Procedure, shortened: as §1

[16] = tested on: corn (Zea mays); assay: Test A postemergence, corn; settings: visual injury, 0 to 100 scale (0 no effect, 100 complete control), approximately 10 days
Procedure, shortened: as §1

[17] = tested on: rice (Oryza sativa); assay: Test B flooded paddy test, rice; settings: 250 g ai/ha, applied to paddy water, visual rating after 13 to 15 days, scale 0 (no effect) to 100 (complete control)
Source text: (§2) At time of treatment, test pots were flooded to 3 cm above the soil surface, treated by application of test compounds directly to the paddy water, and then maintained at that water depth for the duration of the test. Treated plants and controls were maintained in a greenhouse for 13 to 15 days, after which time all species were compared to controls and visually evaluated. […] A dash (-) response means no test result.

[18] = tested on: sedge, umbrella (small-flower umbrella sedge, Cyperus difformis); assay: Test B flooded paddy test, umbrella sedge; settings: 250 g ai/ha, applied to paddy water, visual rating after 13 to 15 days, scale 0 (no effect) to 100 (complete control)
Source text: as §2

[19] = tested on: ducksalad (Heteranthera limosa); assay: Test B flooded paddy test, ducksalad; settings: 250 g ai/ha, applied to paddy water, visual rating after 13 to 15 days, scale 0 (no effect) to 100 (complete control)
Source text: as §2

[20] = tested on: barnyardgrass (Echinochloa crus-galli); assay: Test B flooded paddy test, barnyardgrass; settings: 250 g ai/ha, applied to paddy water, visual rating after 13 to 15 days, scale 0 (no effect) to 100 (complete control)
Source text: as §2

SMILES	Plant response rating, Barnyardgrass ([1]; 125 g ai/ha)	Plant response rating, Barnyardgrass ([1]; 500 g ai/ha)	Plant response rating, Kochia ([2]; 125 g ai/ha)	Plant response rating, Kochia ([2]; 500 g ai/ha)	Plant response rating, Ragweed ([3]; 125 g ai/ha)	Plant response rating, Ragweed ([3]; 500 g ai/ha)	Plant response rating, Ryegrass, Italian ([4]; 125 g ai/ha)	Plant response rating, Ryegrass, Italian ([4]; 500 g ai/ha)	Plant response rating, Foxtail, Giant ([5]; 125 g ai/ha)	Plant response rating, Foxtail, Giant ([5]; 500 g ai/ha)	Plant response rating, Pigweed ([6]; 125 g ai/ha)	Plant response rating, Pigweed ([6]; 500 g ai/ha)	Plant response rating, Barnyardgrass ([7]; 125 g ai/ha)	Plant response rating, Barnyardgrass ([7]; 500 g ai/ha)	Plant response rating, Kochia ([8]; 125 g ai/ha)	Plant response rating, Kochia ([8]; 500 g ai/ha)	Plant response rating, Ragweed ([9]; 125 g ai/ha)	Plant response rating, Ragweed ([9]; 500 g ai/ha)	Plant response rating, Ryegrass, Italian ([10]; 125 g ai/ha)	Plant response rating, Ryegrass, Italian ([10]; 500 g ai/ha)	further results
CN1CC(c2cccc(Oc3ncc(F)cn3)c2)C(C(=O)Nc2ccccc2F)C1=O (single isomer, unassigned) [Compound 36]	90	90	0	40	0	50	0	90	90	90	0	40	90	90	0	50	0	40	0	50	Plant response rating, Foxtail, Giant ([11]; 125 g ai/ha): 80; Plant response rating, Foxtail, Giant ([11]; 500 g ai/ha): 80; Plant response rating, Pigweed ([12]; 125 g ai/ha): 30; Plant response rating, Pigweed ([12]; 500 g ai/ha): 50; Plant response rating, Blackgrass ([13]; 125 g ai/ha): 20; Plant response rating, Blackgrass ([13]; 500 g ai/ha): 50; Plant response rating, Galium ([14]; 125 g ai/ha): 40; Plant response rating, Galium ([14]; 500 g ai/ha): 70; Plant response rating, Wheat ([15]; 125 g ai/ha): 0; Plant response rating, Wheat ([15]; 500 g ai/ha): 60; Plant response rating, Corn ([16]; 125 g ai/ha): 40; Plant response rating, Corn ([16]; 500 g ai/ha): 90; Plant response rating, Rice (Flood) [17]: 30; Plant response rating, Sedge, Umbrella (Flood) [18]: 0; Plant response rating, Ducksalad (Flood) [19]: 0; Plant response rating, Barnyardgrass (Flood) [20]: 60
O=C1NCC(c2cccc(Oc3ncc(F)cn3)c2)C1C(=O)Nc1cccc(F)c1F (single isomer, unassigned) [Compound 37]	90	90	0	70	0	80	20	50	90	100	60	80	90	100	0	50	20	70	0	60	Plant response rating, Foxtail, Giant ([11]; 125 g ai/ha): 70; Plant response rating, Foxtail, Giant ([11]; 500 g ai/ha): 90; Plant response rating, Pigweed ([12]; 125 g ai/ha): 40; Plant response rating, Pigweed ([12]; 500 g ai/ha): 70; Plant response rating, Blackgrass ([13]; 125 g ai/ha): 40; Plant response rating, Blackgrass ([13]; 500 g ai/ha): 70; Plant response rating, Galium ([14]; 125 g ai/ha): 50; Plant response rating, Galium ([14]; 500 g ai/ha): 70; Plant response rating, Wheat ([15]; 125 g ai/ha): 20; Plant response rating, Wheat ([15]; 500 g ai/ha): 70; Plant response rating, Corn ([16]; 125 g ai/ha): 70; Plant response rating, Corn ([16]; 500 g ai/ha): 90; Plant response rating, Rice (Flood) [17]: 20; Plant response rating, Sedge, Umbrella (Flood) [18]: 0; Plant response rating, Ducksalad (Flood) [19]: 100; Plant response rating, Barnyardgrass (Flood) [20]: 30
